Key:
[1] = test system: Zucker Diabetic Fatty (ZDF rat); assay: Acute Oral Efficacy in the ZDF Rat; assay type: in vivo
Protocol: Methods: ZDF rats were purchased from Genetics Inc (Indianapolis, Ind.) at 8 weeks of age. Animals were maintained under standard vivarium conditions and provided with Purina 5008 chow and water ad libitum. At 10-12 weeks of age, rats with blood glucose levels>500 mg/dl were selected and dosed orally either with vehicle (PEG 400), or prodrug (60 mg/kg). Blood glucose levels were monitored at regular intervals for 6 hours following dosing. Blood samples were taken from tail vein nicks and analyzed by means of a HemoCue glucose analyzer (Hemocue, Mission Viejo, Calif.). Statistical analysis was performed using the Student's t test. Means±standard error of the means are shown.

ZDF rat = assay: Chronic Oral Efficacy in the ZDF Rat; assay type: in vivo
Protocol: Methods: ZDF rats (10 weeks of age) were maintained either on powdered Purina 5008 rat chow (n=10) or the same powdered chow supplemented with 0.4% 50.6 (n=8). Blood glucose measurements were made as described in Example E at baseline and at weekly intervals thereafter for a total of 3 weeks. Statistical analysis was performed using the Student's t test. Means±standard error of the means are shown.

[2] = Metabolism of 50.6 in rat plasma; assay type: in vitro ADME; settings: 100 μM
Protocol: (§1) The metabolism of 50.6 was evaluated in rat, monkey, and human plasma by reverse phase HPLC with use of a Beckman Ultrasphere ODS column (4.6×150 mm) equipped with an Alltech All-Guard column. The column was equilibrated with 20 mM potassium phosphate, pH 6.2 and eluted with a linear gradient of 0-60% acetonitrile over 20 minutes at a flow rate of 1.5 mL/min and at a temperature of 40° C. UV absorbance was monitored at 300 nm. […] The metabolite formed in rat plasma was collected and subjected to mass spectrum analysis at Mass Consortium Corporation (San Diego, Calif.). […] This molecular weight is consistent with that of a monophosphoramidate intermediate. This intermediate is likely formed via a reaction mechanism in which the prodrug first undergoes full de-esterification followed by intramolecular, hydrolytic cleavage of one of the amino acyl substituents. Formation of the postulated monophosphoramidate intermediate was confirmed following the synthesis of a synthetic standard, Compound C. The standard had the identical HPLC and UV profile as the metabolite formed in plasma samples.

[3] = Metabolism of 50.6 in monkey plasma; assay type: in vitro ADME; settings: 100 μM
Protocol: as §1

[4] = Metabolism of 50.6 in human plasma; assay type: in vitro ADME; settings: 100 μM
Protocol: as §1

human hepatocytes = assay: Metabolism of 50.6 in Human Hepatocytes; assay type: in vitro ADME; settings: 10 μM
Protocol: Cryopreserved human hepatocytes were obtained from In Vitro Technologies and thawed according to the vendor's recommendations. Cells were incubated at 37° C. in a Krebs-bicarbonate based buffer containing 50.6 at 10 μM. At various time points over the course of 4 hours, aliquots of cells were removed and extracted by addition of methanol to 60%. Cell extracts were clarified by centrifugation and analyzed by reverse phase HPLC with use of a Beckman Ultrasphere ODS column (4.6×150 mm) equipped with an Alltech All-Guard column. […]. Disappearance of 50.6 was rapid and essentially complete within 60 minutes of incubation. […] The initial rate of 3.1 formation was 24 pmol/million cells/minute. […]

[5] = test system: Human Liver Phosphoramidase; assay: Structure Activity Relationship of Human Liver Phosphoramidase (human liver homogenate); assay type: in vitro ADME; settings: pH 7.4
Protocol: Human liver, purchased from the Anatomic Gift Foundation (Laurel, Md.), was homogenized in Krebs-bicarbonate buffer and clarified by a slow-speed centrifugation. Prodrug metabolism was evaluated in reaction mixtures containing human liver homogenate (4 mgs protein), 50 mM Tris-HCl, pH 7.4, 10 mM MgCl2, and 10 mM dithiothreitol. At various time intervals over the course of 2 hours, aliquots were removed from the reaction mixtures and deproteinated by addition of methanol to 60%. Following clarification by centrifugation, metabolites were analyzed by reverse phase HPLC with use of a Beckman Ultrasphere ODS column (4.6×150 mm) equipped with an Alltech All-Guard column. The column was equilibrated with 20 mM potassium phosphate, pH 6.2 and eluted with a linear gradient of 0-60% acetonitrile over 20 minutes at a flow rate of 1.5 mL/min and at a temperature of 40° C. UV absorbance was monitored at 300 nm. Most of the prodrugs evaluated were metabolized via a non-rate limiting, esterase-catalyzed step to their monophosphoramidate form within 5 minutes of incubation. The rate of phosphonic acid appearance was therefore essentially a reflection of the rate of the final […] cleavage step. Results for representative prodrugs for which the esterase-catalyzed step was non-rate limiting are shown below: […]

CCOC(=O)[C@H](C)NP(=O)(N[C@@H](C)C(=O)OCC)c1ccc(-c2nc(N)sc2CC(C)C)o1 [Compound 50.6, 2-Amino-5-isobutyl-4-{2-[5-(N,N′-bis((S)-1-ethoxycarbonyl)ethyl)phosphonamido]furanyl}thiazole]
Blood Glucose, T6h ([1]; 6 h after 60 mg/kg oral): 406 ± 12 mg/dL | Blood Glucose, % Change ([1]; baseline to 6 h, 60 mg/kg oral): −25% | Blood Glucose, Tbaseline ([1]; baseline, 60 mg/kg oral group): 544 ± 25 mg/dL | Blood glucose, t21 days (ZDF rat; 21 days on chow supplemented with 0.4% drug): 436 ± 41 mg/dL | Blood Glucose, Tbaseline (ZDF rat; baseline, chow with 0.4% drug group): 674 ± 20 mg/dL | metabolites formed in plasma [2]: single metabolite | metabolites formed in plasma [3]: single metabolite | metabolites formed in plasma [4]: single metabolite | time to essentially complete disappearance (human hepatocytes; cryopreserved human hepatocytes, 37° C.): ≤ 60 min | initial rate of 3.1 formation (human hepatocytes; human hepatocytes): 24 pmol/million cells/minute | metabolites detected (human hepatocytes; human hepatocytes): Compound C and 3.1 | Phosphoramidase Activity (Rate of 3.1 or 3.58 production, nmoles/mn/mg liver protein) [5]: 0.022 nmoles/mn/mg liver protein

From patent publication US6965033B2, “Bisamidate phosphonate prodrugs” (Metabasis Therapeutics, Inc., priority 1999, dated 2005)
